# Data from US4101538A, “Nonapeptides and methods for their production” (Warner-Lambert, priority 1977, dated 1978).
# Where a SMILES comes first, the peptide text is derived from it. The star is where a group is joined. Cbz = O=C(OCc1ccccc1)*; Bn = c1ccc(C*)cc1
# Tested on: LRF (luteinizing hormone releasing factor) induced luteinizing hormone (LH) release
# Experiment: In vitro LRF antagonist test in rat anterior pituitary cell cultures
# Assay type: cell-based
# Excerpt: Nonapeptides of this invention were screened for LRF antagonist activity in vitro using rat anterior pituitary cell cultures as described by Vale et. al. [Endocrinology, 91, 562 (1972)]. The inhibition of LRF (luteinizing hormone releasing factor) induced luteinizing hormone (LH) release into the culture medium is the endpoint in this in vitro bioassay.
Compound,"LH Value (LRF alone, molar conc. 5×10^-10) [ng/mL]",% LH Release Inhibition (compound molar conc. 1×10^-7) [%],"LH Value (compound molar conc. 1×10^-7, LH released into culture medium) [ng/mL]",% LH Release Inhibition (compound molar conc. 1×10^-8) [%],"LH Value (compound molar conc. 1×10^-8, LH released into culture medium) [ng/mL]"
"LRF Control: luteinizing hormone releasing factor, also referred to as luteinizing hormone releasing hormone (LH-RH); stimulates secretion of luteinizing hormone (QHWSYGLRPG; Gonadoliberin-1; UniProt P01148 24-33, looked up) [reference compound]",69.51,–,–,–,–
NC(=O)CC[C@H](NC(=O)OCc1ccccc1)C(=O)N[C@@H](Cc1c[nH]c2ccccc12)C(=O)N[C@@H](CO)C(=O)N[C@@H](Cc1ccc(O)cc1)C(=O)N[C@@H](Cc1c[nH]c2ccccc12)C(=O)N1CCC[C@H]1C(=O)N1CCC[C@H]1C(=O)N[C@@H](Cc1ccc(OCc2ccccc2)cc1)C(=O)N[C@@H](COCc1ccccc1)C(N)=O [N^α -benzyloxycarbonyl-L-glutaminyl-L-tryptophyl-L-seryl-L-tyrosyl-L-tryptophyl-L-prolyl-L-prolyl-O-benzyl-L-tyrosyl-O-benzyl-L-serinamide] (Cbz-QWSYWPPY(Bn)S(Bn)-NH2),–,29,52.33,37,47.20
